Test results reported in PubChem BioAssay (NCI).
Where “and” joins values, the source holds several entries; their conditions need not be identical. Identical values can stand only once.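 Assay format: 96-well plates, 48-hour exposure. GI50: concentration for 50% inhibition of growth. TGI marks complete inhibition of growth.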

What was measured:
Assay in all cases: inhibition of tumour cell growth, NCI panel, 48 h
[1] = test system: SK-MEL-2 melanoma
[2] = test system: IGROV1 ovarian
[3] = test system: NCI-H23 lung
[4] = test system: UO-31 renal
[5] = test system: MALME-3M melanoma
[6] = test system: 786-0 renal
[7] = test system: K-562 leukemia
[8] = test system: SNB-75 CNS
[9] = test system: CAKI-1 renal
[10] = test system: NCI/ADR-RES ovarian

SMILES	TGI [1] [µM]	TGI [2]	TGI [3] [µM]	TGI [4] [µM]	TGI [5] [µM]	TGI [6] [µM]	TGI [7] [µM]	TGI [8] [µM]	TGI [9] [µM]	GI50 [1] [µM]	GI50 [7] [µM]	GI50 [2] [µM]	GI50 [3] [µM]	GI50 [4] [µM]	GI50 [8]	GI50 [10] [µM]	TGI [10] [µM]	GI50 [5] [µM]	GI50 [9] [µM]
CC(C(=O)N1C(=O)N(C(=O)C(C)C(O)c2ccccc2)C2CCCCC21)C(O)c1ccccc1 (stereo unspecified)	> 100	> 100 µM	> 100	> 100	> 100	> 100													
O=c1ccn(C2OC(CO)C(P(=O)(O)O)C2O)c(=O)[nH]1 (stereo unspecified)	> 100	> 100 µM	> 100	> 100	> 100	> 100	> 100	> 100	> 100										
COc1ccc(-c2c3c([nH]c(=S)c2C#N)CC(C)(C)CC3=O)cc1	> 100	> 100 µM	> 100	> 100	> 100	> 100	> 100		> 100										
COc1cc2cc(Oc3ccc(NC(=O)c4cc(C(F)(F)F)cc(C(F)(F)F)c4)cc3)c(C)nc2cc1OC	> 50	> 50 µM	> 50	> 50	> 50		> 50	> 50	> 50	15.8	2.34	4.63	2.71	2.6	41.5 µM	2.61	> 50	> 50	1.5
N=C(N)c1ccc(-c2ccc(-c3cccs3)s2)cc1	32	3.53 µM	4.86	2.48	3.23			3.17	4.23	13.4		1.84	1.98	0.978	1.69 µM	1.94	4.49	1.69	1.89
Cc1ccc([N+](=O)[O-])cc1N=NC(=O)NNc1cc([N+](=O)[O-])ccc1C	> 100		> 100	78.9	> 100		> 100	66.2	66.8								> 100		
COc1cc2c(cc1OC)[C@H]1CN3CCC[C@H]3C=C1c1ccc(OC)c(O)c1-2	0.000975	0.00323 µM and 0.0137 µM	0.00184	0.00324	0.00179	0.0169			0.000133										
O=C(NC(COC(=O)C(Cc1ccccc1)NC(=O)c1ccccc1)Cc1ccccc1)c1ccccc1 (stereo unspecified)	> 50	> 50 µM	> 50	> 50	> 50		> 50	> 50											
CCCCNC(=S)N/N=C/c1cccc(C)n1		> 100 µM	> 100	78.5	> 100	> 100	44.5	> 100	87.8								> 100		
CSC(=Nc1ccccc1)N(c1ccccc1)c1nc(=[N+](C)C)ss1	11.7	12.8 µM	19.8	28.3	22.6	19.3	2.89	16.3	11.3										
COC(=O)CCc1cc(OC)c2c(c1)[C@H](C(=O)OC)[C@@H](c1ccc(O)c(OC)c1)O2	84.6	> 100 µM	> 100	> 100	> 100	> 100	50.4	> 100									> 100		
CC(C)(C)OC(=O)NCCC(N)=S		> 100 µM	> 100	> 100	> 100	> 100	> 100	> 100									> 100		
C=CCNC(=S)N=Nc1c(O)[nH]c2ccc([N+](=O)[O-])cc12	> 100	> 100 µM	> 100	> 100	> 100		> 100		> 100								> 100		
Oc1[nH]c2ccc(Br)cc2c1N=NC(=S)Nc1ccc(F)cc1	25.9	23.2 µM	6.96		23.8	22.4	67.3	30	19.3								6.63		
CC(=O)Oc1cc(C(F)(F)F)ccc1C(=O)OC1(C)OC(=O)c2ccc(C(F)(F)F)cc2O1 (stereo unspecified)		> 100 µM	> 100	> 100	> 100	> 100	> 100	> 100	> 100								> 100		
CC(C)=CCC/C(C)=C/COC(C)(C)C1=CCC(C)CC1 (stereo unspecified) (tested in a mixture with another compound)		> 100 µM	> 100	> 100	> 100	> 100		> 100	> 100										
C=Cc1ccc(C)[n+](C[Si](C)(C)O[Si](C)(C)C[n+]2cc(C=C)ccc2C)c1	> 100	> 100 µM	> 100	> 100	> 100	> 100	> 100	> 100	> 100										
CCC1=CC2CN3Cn4c(c(COCc5c6n(c7ccccc57)CN5CC7C=C(CC)C5C6(C(=O)OC)C7)c5ccccc54)C(C(=O)OC)(C2)C13	> 100	> 100 µM	> 100	> 100	> 100	> 100	> 100		> 100										
NC(CC1=CS(=O)(=O)c2ccc(Cl)cc21)C(=O)O (stereo unspecified)	> 100	> 100 µM	> 100		> 100	> 100	> 100	> 100	> 100								> 100		
CC1=C2C(=C[C@H]3[C@]4(C)CCCC(C)(C)[C@H]4CC[C@]34O[C@H]24)OC1=O	> 100	> 100 µM	> 100	> 100	> 100	> 100	> 100	> 100									> 100		
C(=Nc1ccc(-c2nc3ccccc3o2)cc1)c1ccco1	> 100	> 100 µM	> 100	> 100	> 100	> 100		> 100	> 100								> 100		
COc1nc2ncc([C@@H](OC(C)=O)[C@@H](COC(C)=O)OC(C)=O)nc2c(=O)[nH]1	> 100	> 100 µM		> 100	> 100	> 100	> 100	> 100	> 100						> 100 µM and 11.3 µM		> 100		
